No end group written: not given here.
Columns and labels:
cytochrome P450 [1] = assay: Cytochrome P450 activity in particulate matter-treated HaCaT cells (P450-Glo Assay); format: cell-based; settings: HaCaT human keratinocytes; peptide pretreatment 1 hour at 20, 100, 200 μM; then 50 μg/cm^2 urban particulate matter 24 hours; FIG. 3
Text: When polyaromatic hydrocarbons (PAHs) present in particulate matter penetrate into cells and bind to AHR, it promotes nuclear translocation of AHR. It is known that the AHR translocated into the nucleus forms a complex AHR/ARNT with an AHR nuclear translocator (ARNT), and this complex act as a transcription factor to promote the expression of cytochrome P450 (CYPs). In order to confirm the effect of the synthesized peptide in inhibiting cell damage caused by particulate matter, an experiment was performed for confirming whether the peptide inhibits the activity of cytochrome P450 after the cells were treated with particulate matter.
(§1) First, HaCaT cells, which are human keratinocytes, were seeded into a 96-well plate at a density of 1×10^4 cells/well. After overnight incubation, the media were replaced with serum-free media. The keratinocytes, HaCaT were pretreated with the synthesized peptides for 1 hour at each concentration (20 μM, 100 μM, and 200 μM). Then, the cells were treated with 50 μg/cm^2 of urban particulate matter (Sigma, NIST1648A) for 24 hours. After the keratinocytes were collected, the activity of cytochrome P450 was measured using P450-Glo™ Assay kit (Promega).

cytochrome P450 [2] = assay: Cytochrome P450 activity in particulate matter-treated A549 cells (P450-Glo Assay); format: cell-based; settings: A549 human alveolar epithelial cells; peptide pretreatment 1 hour at 20, 100, 200 μM; then 50 μg/cm^2 urban particulate matter 24 hours; FIG. 4
Procedure: In addition, in order to confirm whether the peptide can suppress respiratory damage caused by particulate matter, an experiment for measuring the activity of cytochrome P450 was also performed on A549 cells, which are human alveolar epithelial cells.
as §1, with “human alveolar epithelial” for “HaCaT”, “A549 cells” for “which are human keratinocytes,”, “1.2×10^4” for “1×10^4”, “alveolar epithelial cells, A549 cells” for “keratinocytes, HaCaT”, “treated cells” for “keratinocytes”

SSNAEVLALF [SEQ ID NO: 1, SSNAEVLALF]
activity of cytochrome P450 increased by the treatment of particulate matter (cytochrome P450 [1]): reduced in a concentration dependent manner | activity of cytochrome P450 increased by the treatment of particulate matter (cytochrome P450 [2]): reduced in a concentration dependent manner

— patent US12384817B2, “Peptide having protective activity against cell damage caused by particulate matter, and uses for same” (CAREGEN CO., LTD., priority 2020, dated 2025)
